This passage reports GI50 and TGI results from PubChem BioAssay (NCI).

Each structure is given as a SMILES string.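 Results reflect a 48-hour exposure of cells in 96-well plates to compound at five concentrations. GI50 = concentration required for 50% inhibition of growth. At the TGI there is no net growth.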

Some test systems named below: A549 NSCLC; NCI-H226 lung; OVCAR-3 ovarian; HS 578T breast; SK-MEL-28 melanoma; SF-268 CNS; MDA-MB-231 breast; MDA-MB-435; COLO 205 colon; EKVX NSCLC.
Common to all, as to test: NCI anticancer screen, dose series, 48 h

With `CC(=O)N[C@@H](Cc1ccc(OP(=O)(O)O)cc1)C(=O)N[C@H]1CCC(=O)N2CCC[C@@H](C(=O)NCc3ccccc3)N2C1=O`, the GI50 in the experiment on A549 NSCLC, in the experiment on NCI-H226 lung, in the experiment on OVCAR-3 ovarian, with HS 578T breast, in the experiment with SK-MEL-28 melanoma and with SF-268 CNS was over 25 µM each time. For the same compound, the GI50 with MDA-MB-231 breast is over 25 µM; with MDA-MB-435, over 25000 nM; in the experiment on COLO 205 colon, over 25 µM. Also, the TGI in the experiment on A549 NSCLC, in the experiment on NCI-H226 lung, in the experiment with OVCAR-3 ovarian, in the experiment on HS 578T breast, in the experiment with SK-MEL-28 melanoma and with SF-268 CNS was over 25 µM throughout. Further, the TGI with MDA-MB-231 breast, in the experiment on MDA-MB-435 and in the experiment with COLO 205 colon was over 25 µM each time.

Regarding `Cn1c(-c2c(N)n(Cc3ccc(F)cc3)c3nc(C#N)c(C#N)nc23)nc2ccccc21`, the GI50 was 5.48 µM in the experiment on A549 NSCLC; 4.16 µM in the experiment with EKVX NSCLC; 0.842 µM in the experiment on OVCAR-3 ovarian; 4.67 µM in the experiment with HS 578T breast; 5.65 µM with SK-MEL-28 melanoma; 5.47 µM in the experiment on SF-268 CNS. The GI50 was 5.17 µM in the experiment with MDA-MB-231 breast, 1830 nM in the experiment on MDA-MB-435 and 1.52 µM in the experiment on COLO 205 colon. The TGI with A549 NSCLC was over 50 µM; in the experiment with EKVX NSCLC it was over 50 µM; in the experiment with OVCAR-3 ovarian, 2.6 µM; in the experiment with HS 578T breast it was 26.7 µM; in the experiment with SK-MEL-28 melanoma it was 29 µM; with SF-268 CNS it was over 50 µM. In addition, the TGI stood at 38.5 µM with MDA-MB-231 breast, 13.3 µM in the experiment with MDA-MB-435 and 6.26 µM in the experiment on COLO 205 colon.

With `COc1cc(/C=C/C(=O)c2c(-c3ccc(F)cc3)nc3sc(C)nn23)cc(OC)c1OC`, the GI50 in the experiment on A549 NSCLC was 2.53 µM; in the experiment with NCI-H226 lung, 2.46 µM; in the experiment on OVCAR-3 ovarian, 2.63 µM; with HS 578T breast, 5.39 µM; in the experiment with SK-MEL-28 melanoma it was 2.19 µM; with SF-268 CNS, 2.74 µM. For the same compound, the GI50 with MDA-MB-231 breast is 1.99 µM; in the experiment on MDA-MB-435, 3350 nM; with COLO 205 colon it was 1.98 µM. In addition, the TGI is 8.63 µM in the experiment on A549 NSCLC; 8.3 µM in the experiment on NCI-H226 lung; 7 µM in the experiment with OVCAR-3 ovarian; over 100 µM in the experiment with HS 578T breast; 4.9 µM with SK-MEL-28 melanoma; 8.96 µM with SF-268 CNS. Also, the TGI was found to be 8.51 µM in the experiment with MDA-MB-231 breast, 13 µM with MDA-MB-435 and 3.77 µM in the experiment on COLO 205 colon.

For the compound `CCNCCNc1cc(-c2ccc(C(F)(F)F)cc2)c(C#N)c2nc3cc(Cl)c(Cl)cc3n12`, the GI50 with A549 NSCLC is 1.37 µM; in the experiment with EKVX NSCLC, 1.59 µM; in the experiment on OVCAR-3 ovarian, 1.66 µM; in the experiment on HS 578T breast, 1.81 µM; with SK-MEL-28 melanoma it was 1.4 µM; in the experiment on SF-268 CNS it was 1.6 µM. For the same compound, the values for the GI50 in the experiment with MDA-MB-231 breast, in the experiment with MDA-MB-435 and in the experiment on COLO 205 colon were 1.51 µM, 1650 nM and 1.68 µM, respectively. Besides, the TGI with A549 NSCLC stood at 2.77 µM; with EKVX NSCLC, 3.13 µM; in the experiment with OVCAR-3 ovarian it was 3.13 µM; with HS 578T breast, 3.91 µM; in the experiment with SK-MEL-28 melanoma, 2.89 µM; in the experiment with SF-268 CNS it was 3.22 µM. Also, the TGI amounted to 3.1 µM with MDA-MB-231 breast, 3.16 µM in the experiment with MDA-MB-435 and 3.22 µM in the experiment on COLO 205 colon.

Turning to `Cn1cc(C2=C(c3cn(CCCCCO)c4ccccc34)C(=O)NC2=O)c2ccccc21`, the GI50 was 6.19 µM with A549 NSCLC; 5.03 µM in the experiment on NCI-H226 lung; 5.48 µM with OVCAR-3 ovarian; 3.74 µM in the experiment with HS 578T breast; 4.92 µM in the experiment with SK-MEL-28 melanoma; 6.34 µM in the experiment on SF-268 CNS. Further, the GI50 was 8.93 µM in the experiment with MDA-MB-231 breast, 815 nM with MDA-MB-435 and 3.89 µM in the experiment with COLO 205 colon. Moreover, the TGI turned out to be 24 µM in the experiment with A549 NSCLC; 15.8 µM in the experiment with NCI-H226 lung; 17.3 µM with OVCAR-3 ovarian; 17.5 µM in the experiment on HS 578T breast; 15.7 µM in the experiment with SK-MEL-28 melanoma; 19.1 µM in the experiment with SF-268 CNS. Moreover, the figures for the TGI with MDA-MB-231 breast, in the experiment on MDA-MB-435 and with COLO 205 colon were over 24 µM, 4.4 µM and 11.4 µM, respectively.

In the case of `COc1cc2c(c(OC)c1OC)-c1c(c3ccc([N+](=O)[O-])cc3c(=O)n1CCCN)C2=O`, the GI50 in the experiment on A549 NSCLC is 1.32 µM; in the experiment with EKVX NSCLC, 7.1 µM; in the experiment with NCI-H226 lung it was 9.38 µM; in the experiment with OVCAR-3 ovarian, 10.7 µM; in the experiment on HS 578T breast, 11.1 µM; in the experiment with SF-268 CNS, 13.2 µM. For the same compound, the results for the GI50 with MDA-MB-231 breast, in the experiment with MDA-MB-435 and with COLO 205 colon were 0.908 µM, 865 nM and 8.72 µM, respectively. Further, the TGI came to 3.06 µM in the experiment on A549 NSCLC; 33 µM in the experiment on EKVX NSCLC; 19.4 µM in the experiment on NCI-H226 lung; 19.1 µM with OVCAR-3 ovarian; 31.4 µM with HS 578T breast; 34.6 µM in the experiment with SF-268 CNS. For the same compound, the values for the TGI in the experiment with MDA-MB-231 breast, in the experiment with MDA-MB-435 and with COLO 205 colon were 1.74 µM, 1.63 µM and over 50 µM, respectively.

On to `C=CCOC(=O)Nc1cccn([C@H](CC(C)C)C(=O)NCCC(C)C)c1=O`, for which the GI50 is 78.5 µM in the experiment with A549 NSCLC; over 100 µM in the experiment with NCI-H226 lung; 54.5 µM in the experiment with OVCAR-3 ovarian; 87.8 µM in the experiment with HS 578T breast; over 100 µM with SK-MEL-28 melanoma; 84.8 µM in the experiment on SF-268 CNS. Further, the results for the GI50 in the experiment on MDA-MB-231 breast, in the experiment on MDA-MB-435 and with COLO 205 colon were 21.1 µM, over 100000 nM and over 100 µM, respectively. Besides, the TGI in the experiment on A549 NSCLC, with NCI-H226 lung, in the experiment on OVCAR-3 ovarian, in the experiment on HS 578T breast, in the experiment on SK-MEL-28 melanoma and in the experiment on SF-268 CNS was over 100 µM in each case. Moreover, the TGI with MDA-MB-231 breast was 67.2 µM; in the experiment with MDA-MB-435, over 100 µM; in the experiment with COLO 205 colon, over 100 µM.

On to `O=C(c1ccccc1)c1nc2ccc(C(F)(F)F)cc2nc1N1CCN(c2ccccc2)CC1`, for which the GI50 in the experiment on A549 NSCLC is over 100 µM; with EKVX NSCLC, 79.3 µM; in the experiment with NCI-H226 lung, 18.2 µM; with OVCAR-3 ovarian, 19.3 µM; in the experiment with HS 578T breast, 65 µM; in the experiment with SF-268 CNS it was 48 µM. Besides, the GI50 with MDA-MB-231 breast was 23.4 µM; in the experiment with MDA-MB-435 it was 35600 nM; with COLO 205 colon, 18.9 µM. In addition, the TGI with A549 NSCLC was over 100 µM; in the experiment with EKVX NSCLC, over 100 µM; in the experiment with NCI-H226 lung, 46.9 µM; in the experiment on OVCAR-3 ovarian, 39.5 µM; in the experiment with HS 578T breast it was over 100 µM; in the experiment with SF-268 CNS, over 100 µM. The TGI with MDA-MB-231 breast was 63.9 µM; with MDA-MB-435 it was over 100 µM; in the experiment with COLO 205 colon, 51.9 µM.
